The record followed here is US20240059688A1, “CONOLIDINE ANALOGUES AS SELECTIVE ACKR3 MODULATORS FOR THE TREATMENT OF CANCER” (Luxembourg Institute of Health (LIH), priority 2020, published 2024).

SMILES strings stand for the structures.

Holding throughout (assay type): cell-based
For experiment [1], the target named is T1, ACKR3 (Homo sapiens, UniProt P25106). The experiment in a line: ACKR3 internalization assay by flow cytometry in U87-ACKR3 cells. More on the design: expressed in transfected cells; host or cells: U87-ACKR3 (ACKR3-negative U87 as control). The settings on record: 45 minutes at 37° C., anti-ACKR3 mAb 11G8, FIG. 6 section A. On the procedure:
For determination of receptor surface expression levels by flow cytometry, U87-ACKR3 cells were stimulated with WW-1 or WW-12 (50, 10, 5 1 μM) or BAM22 or ctrl peptides (1 μM) for 45 minutes at 37° C. The remaining surface-bound ligands were then removed by a brief wash with 150 mM NaCl, 50 mM glycine, pH 3 and twice with FACS buffer. Cell surface levels of ACKR3 were then measured by flow cytometry using a saturating concentration of receptor-specific mAb (clones 11G8) and a secondary phycoerythrin-conjugated F(ab′)2 fragment anti-mouse IgG (Jackson ImmunoResearch). Dead cells were excluded using the Zombie NIR fixable viability dye (BioLegend, catalog #423106, dilution 1:2000). Mean fluorescence intensity was quantified on a Novocyte Quanteon flow cytometer (ACEA Biosciences) using NovoExpress 1.4.1 (ACEA Biosciences).
Target sequence in this assay (P25106 whole entry, the tested form may be a part): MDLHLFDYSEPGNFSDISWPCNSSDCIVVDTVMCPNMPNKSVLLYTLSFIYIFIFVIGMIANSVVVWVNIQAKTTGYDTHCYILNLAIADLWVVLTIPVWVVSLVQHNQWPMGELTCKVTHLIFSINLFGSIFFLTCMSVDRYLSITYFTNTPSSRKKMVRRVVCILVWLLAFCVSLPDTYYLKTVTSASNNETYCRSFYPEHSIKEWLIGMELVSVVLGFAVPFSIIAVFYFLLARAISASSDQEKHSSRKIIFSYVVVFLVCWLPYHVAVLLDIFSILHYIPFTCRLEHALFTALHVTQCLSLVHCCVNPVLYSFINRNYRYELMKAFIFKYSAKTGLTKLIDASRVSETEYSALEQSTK

The next experiment deals with T2, ACKR4 (Homo sapiens, UniProt Q9NPB9).
T2 construct: expressed in transfected cells; host or cells: U87
T2 sequence (Q9NPB9 1-350): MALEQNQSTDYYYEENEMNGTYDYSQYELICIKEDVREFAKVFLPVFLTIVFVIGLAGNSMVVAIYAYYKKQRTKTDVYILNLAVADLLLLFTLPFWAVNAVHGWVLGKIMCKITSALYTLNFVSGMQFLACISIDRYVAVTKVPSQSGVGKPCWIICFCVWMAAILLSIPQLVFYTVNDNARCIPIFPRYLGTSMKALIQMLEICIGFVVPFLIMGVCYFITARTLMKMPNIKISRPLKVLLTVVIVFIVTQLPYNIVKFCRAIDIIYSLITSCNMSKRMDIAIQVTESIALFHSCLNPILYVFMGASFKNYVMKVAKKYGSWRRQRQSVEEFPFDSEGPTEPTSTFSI
The experiment in a line: NanoBiT β-arrestin-1 recruitment, receptor selectivity panel, ACKR4. The settings on record: higher concentrations (3 μM, 10 μM); FIG. 3 sections B and C. Here is the method:
(§1) To further assess the selectivity profile of the compounds of the invention towards ACKR3, the ability to activate the 21 classical and 4 atypical chemokines receptors and related receptors was tested using the NanoBiT assay based β-arrestin-1 recruitment described previously. The 4 classical opioid receptors described above were also included in the experimental setup. The compounds WW-1 (conolidine) and WW-12 were tested at three different concentrations, 1 μM, 3 μM and 10 μM.
This possible off-target effect was further characterized by comparing the ability of the two molecules to activate receptors ACKR4, CX3CR1 and CCR3 with reference ligands for the receptors, namely CCL19, CX3CL1 and CCL13.
Ligand-induced β-arrestin recruitment to chemokine and opioid receptors was monitored by NanoLuc complementation assay (NanoBiT, Promega). […] Ligand-induced, β-arrestin to GPCRs was evaluated with a Mithras LB940 luminometer (Berthold Technologies, running on MicroWin 2010 5.19 software (Mikrotek Laborsysteme)) for 20 minutes.
(§2) For single dose screening experiments on all chemokine receptors(FIG. 3), the results are represented as percentage of signal monitored with 100 nM of one known agonist chemokine listed in the IUPHAR repository of chemokine receptor ligands which was added as positive control.
Background: Activated receptors often draw arrestin, which recruitment assays turn into a signal.

The target in experiment [2] is T1, ACKR3. Kind of experiment: NanoBiT β-arrestin-1 recruitment, receptor selectivity panel, ACKR3. More on the design: expressed in transfected cells; host or cells: U87. As to conditions: for modulation of ACKR3 in comparison with opioid receptor reference molecules (β-arrestin1 recruitment): NanoBiT, ACKR3 versus MOR, DOR, KOR, NOP, FIG. 5; for activation of ACKR3 (β-arrestin-1 recruitment) in receptor panel: concentration of 1 μM, FIG. 3 section A. On the procedure:
as §1
Target sequence in this assay (P25106 whole entry, the tested form may be a part): as the sequence (P25106 whole entry, the tested form may be a part) above
Target sequence in this assay (P49407 whole entry partner, the tested form may be a part): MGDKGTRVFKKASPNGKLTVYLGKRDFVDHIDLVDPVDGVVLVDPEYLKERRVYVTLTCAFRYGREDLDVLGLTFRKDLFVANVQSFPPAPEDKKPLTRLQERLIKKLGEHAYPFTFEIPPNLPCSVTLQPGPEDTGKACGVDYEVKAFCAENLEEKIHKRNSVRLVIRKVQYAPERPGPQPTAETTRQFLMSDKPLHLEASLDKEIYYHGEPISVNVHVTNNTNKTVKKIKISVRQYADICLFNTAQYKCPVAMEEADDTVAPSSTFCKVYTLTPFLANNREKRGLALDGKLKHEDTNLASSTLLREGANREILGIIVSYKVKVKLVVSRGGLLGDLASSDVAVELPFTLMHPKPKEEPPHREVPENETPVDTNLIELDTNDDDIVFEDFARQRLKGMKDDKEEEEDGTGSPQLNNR
The ability of the compounds of the invention to activate ACKR3 and classical opioid receptors with reference synthetic molecules and approved pain medications such as morphine, fentanyl or buprenorphine that are known to modulate the classical opioid receptors MOR, DOR, KOR and NOP was also tested in NanoBiT based β-arerstin1 recruitment assay. […] The results are depicted in FIG. 5.
(§3) Ligand-induced β-arrestin recruitment to chemokine and opioid receptors was monitored by NanoLuc complementation assay (NanoBiT, Promega). In brief, 1.2×10^6 U87 cells were plated in 10-cm culture dishes and 48 hours later co-transfected with pNBe vectors encoding GPCRs (ACKR3, MOR, DOR, KOR, or NOP) C-terminally tagged with SmBiT and human β-arrestin-1 (arrestin-2) or β-arrestin-2 (arrestin-3) N-terminally fused to LgBiT. 48 hours post-transfection cells were harvested, incubated 25 minutes at 37° C. with Nano-Glo Live Cell substrate diluted 200-fold and distributed into white 96-well plates (5×10^4 cells per well). Ligand-induced, β-arrestin to GPCRs was evaluated with a Mithras LB940 luminometer (Berthold Technologies, running on MicroWin 2010 5.19 software (Mikrotek Laborsysteme)) for 20 minutes.
as §2

For a further experiment, the target named is KOR (Homo sapiens, UniProt P41145). Kind of experiment: NanoBiT-based β-arrestin recruitment assay, KOR. Also on record: expressed in transfected cells; host or cells: U87. The settings on record: concentration range 0.15 nM to 80 μM; reference Dynorphin A. Here is the method:
(§4) The ability of the different molecules to activate the four opioid receptors MOR, DOR, KOR and NOP that are known to mediate in vivo analgesic effects was tested using the NanoBiT-based β-arrestin-2 recruitment assay in a concentration range of 0.15 nM to 80 μM. For each of these receptors a reference ligand corresponding to an endogenous opioid peptide i.e. Met-enkephalin, BAM22, Dynorphin A and Nociceptin, respectively was included.
as §3
(§5) For concentration-response curves (FIG. 2), the signal recorded with a saturating concentration of full agonist for each receptor was set as 100%. […]

The target in a further experiment is DOR (Homo sapiens, UniProt P41143). The experiment in a line: NanoBiT-based β-arrestin-2 recruitment assay, DOR. Also on record: expressed in transfected cells; host or cells: U87. As to conditions: concentration range 0.15 nM to 80 μM; reference Met-enkephalin. On the procedure: as §4, §3, §5
Experiment [3] has as its target T1, ACKR3. The experiment in a line: NanoBiT-based β-arrestin-2 recruitment assay, human ACKR3 in U87 cells. More on the design: expressed in transfected cells; host or cells: U87. As to conditions: for agonist efficacy at hACKR3 compared to CXCL-12: NanoBiT β-arrestin recruitment, reference ligand CXCL-12; for EC50: NanoBiT, U87 cells, FIG. 1 section A, read-out: EC50, β-arrestin-2 recruitment to hACKR3. Here is the method:
(§6) Concentration-response studies were performed with molecules WW-1 (conolidine) and WW-12 on the human and mouse ACKR3 receptors in U87 cells using a NanoBiT-based β-arrestin-2 recruitment assay […] to evaluate their efficacy and potency towards the two receptors.
as §3
(§7) For concentration-response curves (FIG. 2), the signal recorded with a saturating concentration of full agonist for each receptor was set as 100%. To evaluate the antagonist properties of ligands, full agonists of each receptor (50 nM BAM22 for MOR, 50 nM dynorphin A for KOR, 70 nM met-enkephalin for DOR, 70 nM nociceptin for NOP and 4 nM CXCL12 for ACKR3) were added after the 20-minute incubation with the ligands.
Target sequence in this assay (P25106 whole entry, the tested form may be a part): as the sequence (P25106 whole entry, the tested form may be a part) above
Target sequence in this assay (P32121 whole entry partner, the tested form may be a part): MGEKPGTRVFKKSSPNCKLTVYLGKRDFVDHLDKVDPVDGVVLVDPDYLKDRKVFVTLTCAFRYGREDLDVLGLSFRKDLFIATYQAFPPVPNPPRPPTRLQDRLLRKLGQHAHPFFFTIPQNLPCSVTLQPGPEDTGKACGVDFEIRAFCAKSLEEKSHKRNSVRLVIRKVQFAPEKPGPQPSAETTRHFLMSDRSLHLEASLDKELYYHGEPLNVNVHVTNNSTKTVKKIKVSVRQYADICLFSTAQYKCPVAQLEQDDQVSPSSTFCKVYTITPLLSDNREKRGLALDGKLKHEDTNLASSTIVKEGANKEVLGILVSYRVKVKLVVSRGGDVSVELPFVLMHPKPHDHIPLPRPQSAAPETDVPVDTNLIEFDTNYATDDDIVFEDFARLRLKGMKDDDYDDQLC

For a further experiment, the target named is T3, mouse ACKR3 (Mus musculus, UniProt P56485).
T3 construct: expressed in transfected cells; host or cells: U87
The experiment in a line: NanoBiT-based β-arrestin-2 recruitment assay, mouse ACKR3 in U87 cells. As to conditions: for agonist efficacy at mACKR3 compared to CXCL-12: NanoBiT β-arrestin-2 recruitment, reference ligand CXCL-12; for EC50: NanoBiT, U87 cells, FIG. 1 section C, read-out: EC50, β-arrestin-2 recruitment to mouse receptor (mACKR3). On the procedure: as §6, §3, §7

T3 sequence (P56485 whole entry): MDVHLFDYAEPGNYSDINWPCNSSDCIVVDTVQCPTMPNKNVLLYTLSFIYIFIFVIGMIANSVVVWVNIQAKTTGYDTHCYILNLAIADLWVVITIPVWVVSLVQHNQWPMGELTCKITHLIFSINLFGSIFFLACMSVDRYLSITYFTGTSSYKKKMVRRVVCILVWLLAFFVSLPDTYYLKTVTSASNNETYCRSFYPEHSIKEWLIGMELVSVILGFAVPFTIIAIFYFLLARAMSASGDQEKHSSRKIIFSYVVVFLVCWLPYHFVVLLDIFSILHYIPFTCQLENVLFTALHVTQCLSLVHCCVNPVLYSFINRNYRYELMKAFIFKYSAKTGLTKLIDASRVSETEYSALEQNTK
T3 sequence (P32121 whole entry partner): as the sequence (P32121 whole entry partner, the tested form may be a part) above
Chain of DOR (P41143 whole entry): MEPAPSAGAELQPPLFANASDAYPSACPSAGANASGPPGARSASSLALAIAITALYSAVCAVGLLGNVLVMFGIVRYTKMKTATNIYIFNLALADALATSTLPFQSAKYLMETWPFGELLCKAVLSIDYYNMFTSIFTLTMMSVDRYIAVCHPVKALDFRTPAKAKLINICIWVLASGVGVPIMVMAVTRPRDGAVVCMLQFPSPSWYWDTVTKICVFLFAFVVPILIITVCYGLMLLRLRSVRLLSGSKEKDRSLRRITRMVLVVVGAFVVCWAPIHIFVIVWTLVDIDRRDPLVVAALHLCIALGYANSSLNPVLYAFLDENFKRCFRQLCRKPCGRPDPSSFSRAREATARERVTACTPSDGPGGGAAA
Chain of KOR (P41145 whole entry): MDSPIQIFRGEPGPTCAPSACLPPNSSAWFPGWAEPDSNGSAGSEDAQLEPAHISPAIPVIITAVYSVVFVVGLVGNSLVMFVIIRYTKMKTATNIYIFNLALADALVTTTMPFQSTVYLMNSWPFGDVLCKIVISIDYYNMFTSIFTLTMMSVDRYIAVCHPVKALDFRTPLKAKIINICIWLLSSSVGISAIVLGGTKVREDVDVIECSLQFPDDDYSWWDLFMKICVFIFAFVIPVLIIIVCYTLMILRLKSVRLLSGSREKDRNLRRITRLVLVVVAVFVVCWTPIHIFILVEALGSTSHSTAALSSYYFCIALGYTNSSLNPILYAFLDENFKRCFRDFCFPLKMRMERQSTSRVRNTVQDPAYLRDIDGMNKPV

On to `C/C=C1/CN2CC[C@H]1C(=O)c1[nH]c3ccccc3c1C2` [WW-1, (4E,5R)-4-ethylidene-1,4,5,7-tetrahydro-2,5-ethanoazocino[4,3-b]indol-6(3H)-one], for which the “ACKR3 internalization from the plasma membrane” value at ACKR3 [1] was “able to induce receptor internalization”. Besides, the “activation of ACKR4 (β-arrestin-1 recruitment) in receptor panel” value on ACKR4 is given as “weak activation”. Also, on ACKR3 [2], the “modulation of ACKR3 in comparison with opioid receptor reference molecules (β-arrestin1 recruitment)” value is “specific ACKR3 activators” and the “activation of ACKR3 (β-arrestin-1 recruitment) in receptor panel” value is listed as “activated ACKR3”. The “activation of KOR (β-arrestin recruitment)” value at KOR is “not active”. For the same molecule, the “activation of DOR (β-arrestin-2 recruitment)” value on DOR is recorded as “not active”. On ACKR3 [3], the “agonist efficacy at hACKR3 compared to CXCL-12” value is reported as “full agonists” and the EC50 (commonly the concentration that produces a half-maximal response) stood at 16.6 µM. The “agonist efficacy at hACKR3 compared to CXCL-12” value on ACKR3 [3] (listed as conolidine) is “full agonist”. Besides, at mouse ACKR3, the “agonist efficacy at mACKR3 compared to CXCL-12” value is “full agonists” and the EC50 was found to be 22 µM.
On to `C/C=C1/CN(CCCCC)CC[C@H]1C(=O)c1cc2ccccc2[nH]1` [WW-12, [(3E,4R)-3-ethylidene-1-pentylpiperidin-4-yl](1H-indol-2-yl)methanone], for which the “ACKR3 internalization from the plasma membrane” value at ACKR3 [1] is on record as “able to induce receptor internalization”. Moreover, the “activation of ACKR4 (β-arrestin-1 recruitment) in receptor panel” value at ACKR4 is listed as “weak activation”. In addition, on ACKR3 [2], the “modulation of ACKR3 in comparison with opioid receptor reference molecules (β-arrestin1 recruitment)” value was “specific ACKR3 activators” and the “activation of ACKR3 (β-arrestin-1 recruitment) in receptor panel” value is listed as “activated ACKR3”. Besides, the “activation of KOR (β-arrestin recruitment)” value at KOR was “not active”. Also, the “activation of DOR (β-arrestin-2 recruitment)” value at DOR was “not active”. Also, on ACKR3 [3], the “agonist efficacy at hACKR3 compared to CXCL-12” value is recorded as “full agonists” and the EC50 is 0.7 µM. Moreover, at mouse ACKR3, the “agonist efficacy at mACKR3 compared to CXCL-12” value is listed as “full agonists” and the EC50 is 0.9 µM.
